Source: patent publication US20080194585A1, “Fungicidal Pyrazine Derivatives” (priority 2005, published 2008)
Marks after values point to notes of the source that are not given here.

Columns and labels:
Septoria tritici = assay: Test J: wheat leaf blotch, preventive spray on wheat seedlings; assay type: in vivo
Text: A dash (-) indicates no test results.

[1] = tested on: Puccinia recondita f. sp. tritici; assay: Test K: wheat leaf rust, preventive spray on wheat seedlings
Plasmopara viticola = assay: Test D: grape downy mildew, spray after inoculation of grape seedlings; assay type: in vivo
Text: Upon removal, disease ratings were made. […] A dash (-) indicates no test results.

Rhizoctonia oryzae = assay: Test G: turf brown patch, preventive spray on creeping bent grass seedlings
Protocol: (the causal agent of turf brown patch) and incubated in a saturated atmosphere at 27° C. for 24 h, and then moved to a growth chamber at 27° C. for 5 days, after which disease ratings were made.

[2] = tested on: Erysiphe graminis f. sp. tritici; assay: Test L: wheat powdery mildew, preventive spray on wheat seedlings
Botrytis cinerea = assay: Test E: tomato botrytis, preventive spray on tomato seedlings
Sclerotinia sclerotiorum = assay: Test C: cucumber white mold, preventive spray on cucumber seedlings
Pythium aphanidermatum = assay: Test A: bluegrass pythium blight, preventive spray on bluegrass seedlings
fusarium graminearium = assay: Test I: wheat head scab, preventive spray on wheat seedlings
Protocol: (the causal agent of wheat head scab) and incubated in a saturated atmosphere at 20° C. for 72 h, and then moved to a growth chamber at 22° C. for 5 days, after which disease ratings were made.

Phytophthora infestans = assay: whole plant or invertebrate; assay type: in vivo
Septoria nodorum = assay: Test H: wheat glum blotch, preventive spray on wheat seedlings
Protocol: (the causal agent of wheat glum blotch) and incubated in a saturated atmosphere at 20° C. for 48 h, and then moved to a growth chamber at 22° C. for 5 days, after which disease ratings were made.

[3] = tested on: Colletotrichum orbiculare; assay: Test B: cucumber Colletotrichum anthracnose, preventive spray on cucumber seedlings

| Compound | Test J disease control rating (Septoria tritici; 40 ppm (*)) | Test K disease control rating ([1]; 40 ppm (*)) | Test D disease control rating (Plasmopara viticola; 40 ppm (*)) | Test G disease control rating (Rhizoctonia oryzae; 40 ppm (*)) | Test L disease control rating ([2]; 40 ppm (*)) | Test E disease control rating (Botrytis cinerea; 40 ppm (*)) | Test C disease control rating (Sclerotinia sclerotiorum; 40 ppm (*)) | Test A disease control rating (Pythium aphanidermatum; 40 ppm (*)) | Test I disease control rating (fusarium graminearium; 40 ppm (*)) | Test F disease control rating (Phytophthora infestans; 40 ppm (*)) | Test H disease control rating (Septoria nodorum; 40 ppm (*)) | Test B disease control rating ([3]; 40 ppm (*)) | other results |
| --- | --- | --- | --- | --- | --- | --- | --- | --- | --- | --- | --- | --- | --- |
| CC(C)Cn1c(C(C)c2ccccc2)c(Cl)nc(-n2cccn2)c1=O (stereo not drawn) [compound 132] | 9* % | 0* % | 0* % | 0* % | 0* % | 0* % | 0* % | 0* % | 0* % | 0* % | 0* % | 0* % | – |
| CC(C)Cn1c(C(C)c2ccccc2)c(Cl)nc(-n2cncn2)c1=O (stereo not drawn) [compound 133] | 23* % | 0* % | 0* % | 0* % | 0* % | 0* % | 0* % | 0* % | 0* % | 0* % | 0* % | 0* % | – |
| CC(C)Cn1c(-c2cc(F)cc(F)c2F)c(Cl)nc(-n2cccn2)c1=O [compound 139] | 100* % | 99* % | 0* % | 91* % | 99* % | 100* % | 95* % | 0* % | 0* % | 0* % | 97* % | 0* % | – |
| COC(=O)c1ccc(-c2c(Cl)nc(-n3cncn3)c(=O)n2CC(C)C)cc1 [compound 146] | 5* % | 0* % | 0* % | 0* % | 0* % | 0* % | 0* % | 0* % | 0* % | 0* % | 0* % | 0* % | – |
| COC(=O)c1ccc(-c2c(Cl)nc(-n3cccn3)c(=O)n2CC(C)C)cc1 [compound 147] | – | – | – | – | – | – | – | – | – | – | – | – | Test J disease control rating (Septoria tritici; 200 ppm): 96%; Test K disease control rating ([1]; 200 ppm): 80%; Test D disease control rating (Plasmopara viticola; 200 ppm): 92%; Test G disease control rating (Rhizoctonia oryzae; 200 ppm): 0%; Test L disease control rating ([2]; 200 ppm): 0%; Test E disease control rating (Botrytis cinerea; 200 ppm): 97%; Test C disease control rating (Sclerotinia sclerotiorum; 200 ppm): 0%; Test A disease control rating (Pythium aphanidermatum; 200 ppm): 0%; Test I disease control rating (fusarium graminearium; 200 ppm): 0%; Test F disease control rating (Phytophthora infestans; 200 ppm): 93%; Test H disease control rating (Septoria nodorum; 200 ppm): 0%; Test B disease control rating ([3]; 200 ppm): 0% |
| CC(C)Cn1c(-c2ccccc2)c(Cl)nc(-n2cccn2)c1=O [compound 172] | 64* % | 0* % | 0* % | 41* % | 0* % | 07* % | 0* % | 0* % | 0* % | 57* % | 0* % | 0* % | – |
| CC(C)Cn1c(-c2ccccc2)c(Cl)nc(-n2cncn2)c1=O [compound 173] | 45* % | 0* % | 0* % | 0* % | 0* % | 0* % | 0* % | 0* % | 0* % | 0* % | 0* % | 0* % | – |
| COc1ccccc1-c1c(Cl)nc(-n2cncn2)c(=O)n1CC(C)C [compound 177] | 7* % | 0* % | 0* % | 0* % | 0* % | 0* % | 0* % | 0* % | 0* % | 0* % | 0* % | 0* % | – |
| CC(C)Cn1c(-c2cccc(F)c2)c(Cl)nc(-n2cncn2)c1=O [compound 230] | 24* % | 0* % | 0* % | 0* % | 0* % | 82* % | 0* % | 0* % | 0* % | 0* % | 0* % | 0* % | – |
| CC(C)Cn1c(-c2cccc(F)c2)c(Cl)nc(-n2cccn2)c1=O [compound 231] | 89* % | 28* % | 0* % | 0* % | 0* % | 99* % | 0* % | 0* % | 0* % | 0* % | 0* % | 0* % | – |
| CC(C)Cn1c(-c2cccc(C(F)(F)F)c2)c(Cl)nc(-n2cncn2)c1=O [compound 232] | 0* % | 0* % | 0* % | 0* % | 0* % | 0* % | 0* % | 0* % | 0* % | 0* % | 0* % | 0* % | – |
| CC(C)Cn1c(-c2cccc(C(F)(F)F)c2)c(Cl)nc(-n2cccn2)c1=O [compound 233] | 0* % | 0* % | 0* % | 0* % | 0* % | 0* % | 0* % | 0* % | 0* % | 0* % | 0* % | 0* % | – |
| CC(C)Cn1c(-c2cccc(Br)c2)c(Cl)nc(-n2cncn2)c1=O [compound 234] | 0* % | 0* % | 0* % | 0* % | 0* % | 0* % | 0* % | 0* % | 0* % | 0* % | 0* % | 0* % | – |
| CC(C)Cn1c(-c2cccnc2)c(Cl)nc(-n2cncn2)c1=O [compound 235] | 0* % | 0* % | 0* % | 0* % | 0* % | 0* % | 0* % | 45* % | 0* % | 0* % | 0* % | 0* % | – |
| CC(C)Cn1c(-c2cccnc2Cl)c(Cl)nc(-n2cncn2)c1=O [compound 236] | 0* % | 0* % | 0* % | 0* % | 0* % | 0* % | 0* % | 0* % | 0* % | 0* % | 0* % | 0* % | – |
| CC(C)Cn1c(-c2cccnc2)c(Cl)nc(-n2cccn2)c1=O [compound 237] | 24* % | 0* % | 0* % | 0* % | 0* % | 0* % | 0* % | 0* % | 0* % | 0* % | 0* % | 0* % | – |
